Residue numbers refer to the chain shown, from its start.
Tests used:
[1] = target: T1, AR (Homo sapiens, UniProt P10275); test: Reporter gene assay, AR transcriptional (MMTV-Luc) in CV1 cells; type: cell-based; settings: pcDNA-AR + MMTV-Luc, 0.1 nM R1881 plus test compound, 24 hrs, read-out: B1 = AR transcriptional IC50 (μM) in CV1 cells
T1 construct: expressed in transfected cells; host or cells: CV1 cells
T1 sequence (P10275 1-920): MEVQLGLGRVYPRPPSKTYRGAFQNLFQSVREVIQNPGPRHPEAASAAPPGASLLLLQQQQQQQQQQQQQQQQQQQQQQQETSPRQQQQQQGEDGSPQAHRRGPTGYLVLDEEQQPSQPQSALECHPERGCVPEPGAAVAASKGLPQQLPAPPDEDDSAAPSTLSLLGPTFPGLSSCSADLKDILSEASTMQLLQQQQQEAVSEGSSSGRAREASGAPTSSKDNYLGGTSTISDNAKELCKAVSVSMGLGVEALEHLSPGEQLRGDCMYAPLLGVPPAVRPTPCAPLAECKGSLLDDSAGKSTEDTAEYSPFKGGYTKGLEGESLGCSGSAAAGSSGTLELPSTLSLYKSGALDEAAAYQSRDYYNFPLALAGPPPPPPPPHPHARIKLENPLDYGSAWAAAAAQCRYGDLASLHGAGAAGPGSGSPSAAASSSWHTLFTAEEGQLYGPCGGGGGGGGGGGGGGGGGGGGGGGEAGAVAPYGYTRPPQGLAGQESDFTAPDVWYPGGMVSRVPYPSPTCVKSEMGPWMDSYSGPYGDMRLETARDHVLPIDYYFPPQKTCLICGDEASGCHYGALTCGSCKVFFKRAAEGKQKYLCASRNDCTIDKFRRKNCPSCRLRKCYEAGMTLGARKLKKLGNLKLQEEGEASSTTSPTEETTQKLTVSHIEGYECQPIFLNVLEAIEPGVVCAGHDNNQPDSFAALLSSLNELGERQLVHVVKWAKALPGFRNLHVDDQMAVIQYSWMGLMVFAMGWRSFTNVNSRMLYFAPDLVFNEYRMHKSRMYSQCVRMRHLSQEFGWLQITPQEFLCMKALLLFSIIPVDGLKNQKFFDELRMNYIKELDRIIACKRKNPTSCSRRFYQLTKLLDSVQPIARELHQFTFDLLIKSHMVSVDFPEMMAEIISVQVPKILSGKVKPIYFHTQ
Description: Reporter Gene Assay (IC50 determination, Table 2, B1-B3). CV1 cells were seeded into 96-well cell culture plates and transfected with Lipofectin. For AR transcriptional assays, the DNA mixture consisted of pcDNA-AR, MMTV-Luc (androgen responsive reporter gene), and Renilla-Luc (for assessing transfection efficiency and toxicity). Following overnight incubation, cells were induced with hormone (0.1 nM R1881 (synthetic AR agonist) plus increasing concentrations of test compound) for 24 hrs. Cells were lysed and luciferase activity was quantified using Dual Luciferase Reagent (DLR). IC50 determination was assessed using GraphPad Prism software.

[2] = target: T2, AR (Homo sapiens, UniProt P10275, T878A); test: In Cell Western AR degradation assay in LNCaP cells; type: cell-based; settings: 18 hrs, greater than 50% degradation at 10 μM (method says 20 μM)
T2 construct: endogenous in cells; host or cells: LNCaP cells
T2 sequence (P10275 1-920 T878A): T1 sequence (P10275 1-920) with T878A
Description: In Cell Western (AR degradation Assay, Table 2, B10). LNCaP cells were plated in 96-well clear bottom black plates (20K cells/well) in RPMI supplemented with 8% CFS. Following 48 hr incubation, cells were treated with hormone (20 μM test compound) for 18 hrs. Cells were fixed with formaldehyde (3.7%) and permeabilized using PBS (0.1% TRITON X-100). Cells were incubated with anti-AR antibody (N20, 1:2000), washed with PBS (0.1% Tween), and stained with 2nd antibody (Biotium CF770 goat anti-rabbit, 1:2000). AR protein expression was assessed using the LI-COR Odyssey imaging system. DRAQ5 (DNA stain, 1:10,000, Thermo Scientific) was used to normalize AR protein expression.
For B4-B7, scoring system is based on the relative AR target gene agonist/antagonist activity of test compounds when compared to benchmark compounds enzalutamide or bicalutamide. […] The lack of agonist activity is desirable for therapies intended to treat CRPC. For B4 and B6, a score of 1 indicates less agonism (highly desired activity) than benchmark compound enzalutamide, a score of 2 indicates equal agonism to enzalutamide (desirable), a score of 3 indicates agonism between enzalutamide and bicalutamide (less desirable activity), a score of 4 indicates equal agonism to bicalutamide (liability), and a score of 5 indicates higher agonism than bicalutamide (liability). For B5 and B7 a score of 1 indicates higher antagonist efficacy (highly desired activity) than benchmark compound enzalutamide, a score of 2 indicates equal antagonist efficacy to enzalutamide (desirable), a score of 3 indicates antagonist efficacy between enzalutamide and bicalutamide (less desirable activity), a score of 4 indicates antagonist efficacy equal to bicalutamide (liability), and a score of 5 indicates antagonist efficacy worse than bicalutamide (liability) For B9, Compounds that degrade AR (greater than 50% degradation at 10 μM) are indicated.

| Structure (SMILES) | IC50 [1] [µM] | B9 = AR degradation in LNCaP cells (In-Cell Western) [2] |
| --- | --- | --- |
| CC1(C)CC(=O)C2=C(C1)Nc1ccc3cnccc3c1C2c1ccc(F)c(F)c1 (racemic) [Compound A91, (±)-12-(3,4-difluorophenyl)-9,9-dimethyl-8,9,10,12-tetrahydrobenzo[j][3,7]phenanthrolin-11(7H)-one] | 1.4 | Degrader (Compounds that degrade AR (greater than 50% degradation at 10 μM) are indicated) |
| CC1(C)CC(=O)C2=C(C1)Nc1ccc3ncccc3c1C2c1cc2ccccc2s1 (racemic) [Compound A92, (±)-12-(benzo[b]thiophen-2-yl)-9,9-dimethyl-8,9,10,12-tetrahydrobenzo[b][4,7]phenanthrolin-11(7H)-one] | 0.9 | Degrader (Compounds that degrade AR (greater than 50% degradation at 10 μM) are indicated) |
| CC1(C)CC(=O)C2=C(C1)Nc1ccc3nccnc3c1C2c1cc2ccccc2s1 (racemic) [Compound A93, (±)-12-(benzo[b]thiophen-2-yl)-9,9-dimethyl-8,9,10,12-tetrahydropyrazino[2,3-a]acridin-11(7H)-one] | 1.2 | Degrader (Compounds that degrade AR (greater than 50% degradation at 10 μM) are indicated) |
| CC1(C)CC(=O)C2=C(C1)Nc1cc(N3CCCC3)ccc1C2c1ccc(Cl)s1 (racemic) [Compound A97, (±)-9-(5-chlorothiophen-2-yl)-3,3-dimethyl-6-(pyrrolidin-1-yl)-3,4,9,10-tetrahydroacridin-1(2H)-one] | > 10 | Degrader (Compounds that degrade AR (greater than 50% degradation at 10 μM) are indicated) |
| CC1(C)CC(=O)C2=C(C1)Nc1ccc3ncccc3c1C2c1cc(C(F)(F)F)cc(C(F)(F)F)c1 (stereo not drawn) [Compound A50] | 6 | Degrader (Compounds that degrade AR (greater than 50% degradation at 10 μM) are indicated) |
| CC1(C)CC(=O)C2=C(C1)Nc1ccc3ccccc3c1C2c1ccc([N+](=O)[O-])cc1 (stereo not drawn) [Compound A51, 9,9-dimethyl-12-(4-nitrophenyl)-8,9,10,12-tetrahydrobenzo[a]acridin-11(7H)-one] | 1.2 | Degrader (Compounds that degrade AR (greater than 50% degradation at 10 μM) are indicated) |
| CC1(C)CC(=O)C2=C(C1)Nc1ccc3ncccc3c1C2c1ccc(C#N)cc1 (stereo not drawn) [Compound A55] | > 10 | Degrader (Compounds that degrade AR (greater than 50% degradation at 10 μM) are indicated) |
| CC1(C)CC(=O)C2=C(C1)Nc1ccc3ncccc3c1C2c1ccccn1 (stereo not drawn) [Compound A57, 9,9-dimethyl-12-(pyridin-2-yl)-8,9,10,12-tetrahydrobenzo[b][4,7]phenanthrolin-11(7H)-one] | > 10 | Degrader (Compounds that degrade AR (greater than 50% degradation at 10 μM) are indicated) |
| CC1(C)CC(=O)C2=C(C1)Nc1ccc3c(c1C2c1ccc(F)c(F)c1)OCO3 (stereo not drawn) [Compound A59] | > 10 | Degrader (Compounds that degrade AR (greater than 50% degradation at 10 μM) are indicated) |
| CC1(C)CC(=O)C2=C(C1)Nc1ccc3ncccc3c1C2c1csc([N+](=O)[O-])c1 (stereo not drawn) [Compound A60] | 1.7 | Degrader (Compounds that degrade AR (greater than 50% degradation at 10 μM) are indicated) |

The next compounds have a lower IC50 [1] than those just listed; values first:

| IC50 [1] [µM] | Structure (SMILES) | B9 = AR degradation in LNCaP cells (In-Cell Western) [2] |
| --- | --- | --- |
| 0.8 | CC1(C)CC(=O)C2=C(C1)Nc1ccc3cccnc3c1C2c1ccc(F)c(F)c1 (racemic) [Compound A96, (±)-12-(3,4-difluorophenyl)-9,9-dimethyl-8,9,10,12-tetrahydrobenzo[j][1,7]phenanthrolin-11(7H)-one] | Degrader (Compounds that degrade AR (greater than 50% degradation at 10 μM) are indicated) |
| 0.5 | CC1(C)CC(=O)C2=C(C1)Nc1ccc3nccnc3c1C2c1ccc(Br)s1 (racemic) [Compound A100, (±)-12-(5-bromothiophen-2-yl)-9,9-dimethyl-8,9,10,12-tetrahydropyrazino[2,3-a]acridin-11(7H)-one] | Degrader (Compounds that degrade AR (greater than 50% degradation at 10 μM) are indicated) |
| 0.8 | CC1(C)CC(=O)C2=C(C1)Nc1ccc3ncncc3c1C2c1ccc(Cl)s1 (racemic) [Compound A101, (±)-12-(5-chlorothiophen-2-yl)-9,9-dimethyl-8,9,10,12-tetrahydropyrimido[5,4-a]acridin-11(7H)-one] | Degrader (Compounds that degrade AR (greater than 50% degradation at 10 μM) are indicated) |
| 0.4 | CC1(C)CC(=O)C2=C(C1)Nc1ccc3ncncc3c1C2c1ccc(Br)s1 (racemic) [Compound A102, (±)-12-(5-bromothiophen-2-yl)-9,9-dimethyl-8,9,10,12-tetrahydropyrimido[5,4-a]acridin-11(7H)-one] | Degrader (Compounds that degrade AR (greater than 50% degradation at 10 μM) are indicated) |
| 0.3 | Cc1ccc(C2C3=C(CC(C)(C)CC3=O)Nc3ccc4ncccc4c32)s1 (racemic) [Compound A103, (±)-9,9-dimethyl-12-(5-methylthiophen-2-yl)-8,9,10,12-tetrahydrobenzo[b][4,7]phenanthrolin-11(7H)-one] | Degrader (Compounds that degrade AR (greater than 50% degradation at 10 μM) are indicated) |
